{"source": "PubChem BioAssay (NCI)", "assay_in_all_cases": "DTP human tumour cell line panel, 48 h", "key": {"[1]": {"test_system": "RXF 393 renal"}, "[2]": {"test_system": "NCI-H460 lung"}, "[3]": {"test_system": "K-562 leukemia"}, "[4]": {"test_system": "LOX IMVI melanoma"}, "[5]": {"test_system": "MDA-MB-435"}, "[6]": {"test_system": "OVCAR-5 ovarian"}, "[7]": {"test_system": "IGROV1 ovarian"}, "[8]": {"test_system": "T-47D breast"}, "[9]": {"test_system": "M14 melanoma"}, "[10]": {"test_system": "MOLT-4 leukemia"}, "[11]": {"test_system": "UO-31 renal"}, "[12]": {"test_system": "MCF7 breast"}, "[13]": {"test_system": "SF-268 CNS"}, "[14]": {"test_system": "MDA-MB-231 breast"}, "[15]": {"test_system": "NCI-H23 lung"}, "[16]": {"test_system": "UACC-62 melanoma"}, "[17]": {"test_system": "HCT-116 colon"}, "[18]": {"test_system": "DU-145 prostate"}, "[19]": {"test_system": "HL-60(TB) leukemia"}, "[20]": {"test_system": "SF-539 CNS"}, "[21]": {"test_system": "SK-OV-3 ovarian"}, "[22]": {"test_system": "OVCAR-4 ovarian"}, "[23]": {"test_system": "OVCAR-8 ovarian"}, "[24]": {"test_system": "SK-MEL-28 melanoma"}, "[25]": {"test_system": "NCI-H522 lung"}, "[26]": {"test_system": "OVCAR-3 ovarian"}, "[27]": {"test_system": "MALME-3M melanoma"}, "[28]": {"test_system": "SN12C renal"}, "[29]": {"test_system": "HCC-2998 colon"}}, "note": "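Results reflect a 48-hour exposure of cells in 96-well plates to compound at five concentrations. GI50 marks 50% less growth. Definition used: TGI = concentration required for complete inhibition of growth.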"}
{"smiles": "Clc1ccc(OCc2nnc3n2N=C(c2ccc(Cl)cc2Cl)CS3)cc1", "values": [{"measurement": "GI50", "setting": "[1]", "result": 13.7, "unit": "µM"}, {"measurement": "TGI", "setting": "[1]", "result": 31.8, "unit": "µM"}, {"measurement": "GI50", "setting": "[2]", "result": 17.2, "unit": "µM"}, {"measurement": "TGI", "setting": "[2]", "result": 51, "unit": "µM"}, {"measurement": "GI50", "setting": "[3]", "result": 32.5, "unit": "µM"}, {"measurement": "TGI", "setting": "[3]", "result": "> 100", "unit": "µM"}, {"measurement": "GI50", "setting": "[4]", "result": 16.2, "unit": "µM"}, {"measurement": "TGI", "setting": "[4]", "result": 30.9, "unit": "µM"}, {"measurement": "GI50", "setting": "[5]", "result": 22.4, "unit": "µM"}, {"measurement": "TGI", "setting": "[5]", "result": 59.8, "unit": "µM"}, {"measurement": "GI50", "setting": "[6]", "result": 22.1, "unit": "µM"}, {"measurement": "TGI", "setting": "[6]", "result": 81, "unit": "µM"}, {"measurement": "GI50", "setting": "[7]", "result": 19.8, "unit": "µM"}, {"measurement": "TGI", "setting": "[7]", "result": 50.8, "unit": "µM"}, {"measurement": "GI50", "setting": "[8]", "result": 38.5, "unit": "µM"}, {"measurement": "TGI", "setting": "[8]", "result": "> 100", "unit": "µM"}, {"measurement": "GI50", "setting": "[9]", "result": 16.4, "unit": "µM"}, {"measurement": "TGI", "setting": "[9]", "result": 36.3, "unit": "µM"}, {"measurement": "GI50", "setting": "[10]", "result": 32.4, "unit": "µM"}, {"measurement": "TGI", "setting": "[10]", "result": "> 100", "unit": "µM"}, {"measurement": "GI50", "setting": "[11]", "result": 14.8, "unit": "µM"}, {"measurement": "TGI", "setting": "[11]", "result": 34.5, "unit": "µM"}, {"measurement": "GI50", "setting": "[12]", "result": 27.8, "unit": "µM"}, {"measurement": "TGI", "setting": "[12]", "result": 69.2, "unit": "µM"}, {"measurement": "GI50", "setting": "[13]", "result": 17.4, "unit": "µM"}, {"measurement": "TGI", "setting": "[13]", "result": 40.2, "unit": "µM"}, {"measurement": "GI50", "setting": "[14]", "result": 14.4, "unit": "µM"}, {"measurement": "TGI", "setting": "[14]", "result": 33.2, "unit": "µM"}, {"measurement": "GI50", "setting": "[15]", "result": 17.1, "unit": "µM"}, {"measurement": "TGI", "setting": "[15]", "result": 37.9, "unit": "µM"}, {"measurement": "GI50", "setting": "[16]", "result": 14, "unit": "µM"}, {"measurement": "TGI", "setting": "[16]", "result": 31.4, "unit": "µM"}, {"measurement": "GI50", "setting": "[17]", "result": 13.2, "unit": "µM"}, {"measurement": "TGI", "setting": "[17]", "result": 30.4, "unit": "µM"}, {"measurement": "GI50", "setting": "[18]", "result": 31.2, "unit": "µM"}, {"measurement": "TGI", "setting": "[18]", "result": "> 100", "unit": "µM"}, {"measurement": "GI50", "setting": "[19]", "result": 31.8, "unit": "µM"}, {"measurement": "TGI", "setting": "[19]", "result": "> 100", "unit": "µM"}, {"measurement": "GI50", "setting": "[20]", "result": 17.4, "unit": "µM"}, {"measurement": "TGI", "setting": "[20]", "result": 34.6, "unit": "µM"}, {"measurement": "GI50", "setting": "[21]", "result": 42.8, "unit": "µM"}, {"measurement": "TGI", "setting": "[21]", "result": "> 100", "unit": "µM"}, {"measurement": "GI50", "setting": "[22]", "result": 23.7, "unit": "µM"}, {"measurement": "TGI", "setting": "[22]", "result": 79, "unit": "µM"}, {"measurement": "GI50", "setting": "[23]", "result": 25.4, "unit": "µM"}, {"measurement": "TGI", "setting": "[23]", "result": 52.7, "unit": "µM"}, {"measurement": "GI50", "setting": "[24]", "result": 20.6, "unit": "µM"}, {"measurement": "TGI", "setting": "[24]", "result": 44.6, "unit": "µM"}, {"measurement": "GI50", "setting": "[25]", "result": 19.2, "unit": "µM"}, {"measurement": "TGI", "setting": "[25]", "result": 38.7, "unit": "µM"}, {"measurement": "GI50", "setting": "[26]", "result": 17.8, "unit": "µM"}, {"measurement": "TGI", "setting": "[26]", "result": 50.7, "unit": "µM"}, {"measurement": "GI50", "setting": "[27]", "result": 19.8, "unit": "µM"}, {"measurement": "TGI", "setting": "[27]", "result": 58.6, "unit": "µM"}, {"measurement": "GI50", "setting": "[28]", "result": 14.8, "unit": "µM"}, {"measurement": "TGI", "setting": "[28]", "result": 30.6, "unit": "µM"}, {"measurement": "GI50", "setting": "[29]", "result": 16.6, "unit": "µM"}]}
